Experimental data as given in ChEMBL document CHEMBL1201862, “PubChem BioAssay data set” (2004).
Active and inactive are the calls of the source.

Columns and labels:
[1] = viability loss of HMLE_sh_eGFP cells – cell-based, luminescence, counter-screen for HMLE_sh_ECad selective toxicity project, dose response (AID 463074); type: functional, Homo sapiens;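 also: HMLE human mammary epithelial cells expressing control shRNA against eGFP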
[2] = viability of HCT116 lacking mutant beta-catenin – cell-based, human colon tumor, dose response (AID 1045); type: functional;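 also: HCT116 colon tumor cells with beta catenin knocked out; cells exposed to compound for 60 hours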
[3] = Luminescence Cell-Based Dose Retest to Confirm Inhibitors of Cancer Stem Cells. [Related pubchem assays (depositor defined):AID2717, AID2721]; type: functional; conditions: Homo sapiens
[4] = viability of PTEN-deleted HCT116 cells – cell-based, HCT116 PTEN knockout, dose response (AID 1047); type: functional;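 also: HCT116 colon tumor cells with PTEN knocked out; cells exposed to compound for 60 hours before readout; potency for loss of cell viability measured by luminescence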
HEK293 [5] = test: cells; conditions: Homo sapiens
HEK293 [6] = test: cells; conditions: Homo sapiens; remark: listed apart in the source
[7] = molecular target: Likely tRNA 2'-phosphotransferase (Candida albicans (strain SC5314 / ATCC MYA-2876) (Yeast), UniProt Q5A7N4); test: inhibition of Candida TPT1 enzyme activity – biochemical, fluorescence polarization, dose response (AID 2160)
Sequence of Likely tRNA 2'-phosphotransferase (Q5A7N4 whole entry): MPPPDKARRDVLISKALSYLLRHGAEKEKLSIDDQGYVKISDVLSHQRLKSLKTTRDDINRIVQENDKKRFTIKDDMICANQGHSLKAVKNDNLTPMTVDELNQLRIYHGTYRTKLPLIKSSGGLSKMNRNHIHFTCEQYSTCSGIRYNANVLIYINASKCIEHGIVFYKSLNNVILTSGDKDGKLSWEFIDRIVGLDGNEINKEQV

[8] = molecular target: Guanyl-specific ribonuclease T1 (Aspergillus oryzae (strain ATCC 42149 / RIB 40), UniProt P00651); test: inhibition of ribonuclease T1 activity – biochemical, fluorescence polarization, 1536-well, counter-screen for TPT1 inhibitor project, dose response (AID 2167)
Sequence of Guanyl-specific ribonuclease T1 (P00651 whole entry): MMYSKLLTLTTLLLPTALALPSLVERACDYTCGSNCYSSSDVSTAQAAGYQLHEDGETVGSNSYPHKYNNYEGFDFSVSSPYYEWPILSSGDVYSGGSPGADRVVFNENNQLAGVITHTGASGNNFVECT

[9] = molecular target: T1, Dual specificity protein phosphatase 3 (Homo sapiens, UniProt P51452); test: VHR1 phosphatase inhibitors, primary screen, biochemical, absorbance, uHTS (AID 1654)
T1 sequence (P51452 whole entry): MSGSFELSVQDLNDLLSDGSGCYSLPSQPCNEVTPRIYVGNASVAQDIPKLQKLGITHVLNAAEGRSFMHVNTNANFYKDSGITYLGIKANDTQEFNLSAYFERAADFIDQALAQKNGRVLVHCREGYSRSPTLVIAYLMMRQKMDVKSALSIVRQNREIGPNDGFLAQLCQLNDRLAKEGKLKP

[10] = molecular target: T1, Dual specificity protein phosphatase 3; test: VHR1 phosphatase inhibitors, biochemical (AID 1878)
[11] = molecular target: Lysine-specific demethylase 4A (Homo sapiens, UniProt O75164); test: inhibition of JMJD2A H3K9me3 demethylation – biochemical, DELFIA europium, cherry-picked samples, selectivity assay for GASC-1 inhibitor project, dose response (AID 488840)
Sequence of Lysine-specific demethylase 4A (O75164 whole entry): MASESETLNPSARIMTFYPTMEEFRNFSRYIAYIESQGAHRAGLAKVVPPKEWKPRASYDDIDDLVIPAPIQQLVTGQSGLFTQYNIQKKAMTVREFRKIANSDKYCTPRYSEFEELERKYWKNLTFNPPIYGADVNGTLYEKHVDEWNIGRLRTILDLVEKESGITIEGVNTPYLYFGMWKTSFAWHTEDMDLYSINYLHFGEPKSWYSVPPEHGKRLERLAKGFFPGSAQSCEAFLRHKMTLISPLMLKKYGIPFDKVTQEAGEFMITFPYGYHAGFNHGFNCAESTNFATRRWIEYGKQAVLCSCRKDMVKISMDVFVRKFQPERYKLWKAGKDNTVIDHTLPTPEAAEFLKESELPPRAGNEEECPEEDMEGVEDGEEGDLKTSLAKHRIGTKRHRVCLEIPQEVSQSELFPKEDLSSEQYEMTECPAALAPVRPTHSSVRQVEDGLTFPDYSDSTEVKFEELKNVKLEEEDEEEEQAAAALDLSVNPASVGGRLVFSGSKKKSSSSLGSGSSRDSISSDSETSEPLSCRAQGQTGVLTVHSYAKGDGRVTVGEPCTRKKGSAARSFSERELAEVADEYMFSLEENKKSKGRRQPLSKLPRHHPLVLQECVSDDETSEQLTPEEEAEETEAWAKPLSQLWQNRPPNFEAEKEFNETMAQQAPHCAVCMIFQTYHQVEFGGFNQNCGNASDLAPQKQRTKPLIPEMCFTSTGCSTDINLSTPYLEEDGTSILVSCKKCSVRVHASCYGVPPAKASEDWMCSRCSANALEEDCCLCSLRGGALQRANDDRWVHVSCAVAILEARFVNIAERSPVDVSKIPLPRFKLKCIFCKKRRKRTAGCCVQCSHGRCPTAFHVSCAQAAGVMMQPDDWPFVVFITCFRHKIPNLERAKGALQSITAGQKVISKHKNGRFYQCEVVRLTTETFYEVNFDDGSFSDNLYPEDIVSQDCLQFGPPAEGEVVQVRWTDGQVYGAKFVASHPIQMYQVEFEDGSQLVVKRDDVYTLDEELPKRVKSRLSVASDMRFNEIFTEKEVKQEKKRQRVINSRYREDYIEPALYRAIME

Hexokinase HKDC1 = molecular target: T2, Hexokinase HKDC1 (Homo sapiens, UniProt Q2TB90); test: inhibition of HKDC1 glucose phosphorylation – biochemical, W721R variant, dose response (AID 504729); type: functional
T2 sequence (Q2TB90 whole entry): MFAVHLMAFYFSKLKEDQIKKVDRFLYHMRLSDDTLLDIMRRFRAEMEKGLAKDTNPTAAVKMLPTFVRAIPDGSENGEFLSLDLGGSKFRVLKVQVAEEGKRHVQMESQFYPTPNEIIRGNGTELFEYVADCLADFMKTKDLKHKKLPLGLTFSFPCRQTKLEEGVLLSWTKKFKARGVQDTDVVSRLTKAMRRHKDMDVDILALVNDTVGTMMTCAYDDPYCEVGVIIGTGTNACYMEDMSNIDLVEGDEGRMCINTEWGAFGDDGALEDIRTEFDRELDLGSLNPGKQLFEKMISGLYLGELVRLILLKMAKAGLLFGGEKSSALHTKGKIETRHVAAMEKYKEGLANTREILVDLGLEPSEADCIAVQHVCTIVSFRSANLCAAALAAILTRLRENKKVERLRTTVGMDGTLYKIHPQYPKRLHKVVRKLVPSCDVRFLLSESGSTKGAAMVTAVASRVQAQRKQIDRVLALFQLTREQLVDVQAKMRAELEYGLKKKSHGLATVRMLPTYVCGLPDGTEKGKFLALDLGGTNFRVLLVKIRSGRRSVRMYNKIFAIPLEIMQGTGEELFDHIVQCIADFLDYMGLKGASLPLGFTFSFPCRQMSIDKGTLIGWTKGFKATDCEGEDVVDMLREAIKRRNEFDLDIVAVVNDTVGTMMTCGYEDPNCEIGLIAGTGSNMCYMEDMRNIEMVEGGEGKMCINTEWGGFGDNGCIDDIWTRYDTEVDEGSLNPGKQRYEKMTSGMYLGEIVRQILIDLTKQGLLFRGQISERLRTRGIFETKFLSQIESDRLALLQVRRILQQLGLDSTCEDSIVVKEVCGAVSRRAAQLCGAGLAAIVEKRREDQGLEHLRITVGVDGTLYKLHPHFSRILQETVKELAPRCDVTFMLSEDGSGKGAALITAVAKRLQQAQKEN

[12] = molecular target: T3, Dual specificity protein phosphatase 6 (Rattus norvegicus, UniProt Q64346); test: inhibition of rat DUSP6 enzyme activity – biochemical, in vitro, primary screen (AID 425)
T3 sequence (Q64346 whole entry): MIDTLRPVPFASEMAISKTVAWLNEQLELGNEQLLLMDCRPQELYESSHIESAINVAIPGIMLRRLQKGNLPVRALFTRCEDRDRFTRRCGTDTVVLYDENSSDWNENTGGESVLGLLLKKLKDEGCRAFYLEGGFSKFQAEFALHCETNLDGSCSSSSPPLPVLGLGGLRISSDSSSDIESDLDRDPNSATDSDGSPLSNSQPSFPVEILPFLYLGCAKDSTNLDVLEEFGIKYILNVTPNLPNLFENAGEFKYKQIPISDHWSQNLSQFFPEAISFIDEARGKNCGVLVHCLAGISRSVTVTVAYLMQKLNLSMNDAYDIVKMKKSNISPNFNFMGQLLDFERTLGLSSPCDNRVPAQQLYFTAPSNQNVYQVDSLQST

[13] = molecular target: Lysine-specific demethylase 4C (Homo sapiens, UniProt Q9H3R0); test: inhibition of JMJD2C H3K9me3 demethylation – biochemical, DELFIA europium, cherry-picked samples, dose response (AID 488835); type: functional
Sequence of Lysine-specific demethylase 4C (Q9H3R0 whole entry): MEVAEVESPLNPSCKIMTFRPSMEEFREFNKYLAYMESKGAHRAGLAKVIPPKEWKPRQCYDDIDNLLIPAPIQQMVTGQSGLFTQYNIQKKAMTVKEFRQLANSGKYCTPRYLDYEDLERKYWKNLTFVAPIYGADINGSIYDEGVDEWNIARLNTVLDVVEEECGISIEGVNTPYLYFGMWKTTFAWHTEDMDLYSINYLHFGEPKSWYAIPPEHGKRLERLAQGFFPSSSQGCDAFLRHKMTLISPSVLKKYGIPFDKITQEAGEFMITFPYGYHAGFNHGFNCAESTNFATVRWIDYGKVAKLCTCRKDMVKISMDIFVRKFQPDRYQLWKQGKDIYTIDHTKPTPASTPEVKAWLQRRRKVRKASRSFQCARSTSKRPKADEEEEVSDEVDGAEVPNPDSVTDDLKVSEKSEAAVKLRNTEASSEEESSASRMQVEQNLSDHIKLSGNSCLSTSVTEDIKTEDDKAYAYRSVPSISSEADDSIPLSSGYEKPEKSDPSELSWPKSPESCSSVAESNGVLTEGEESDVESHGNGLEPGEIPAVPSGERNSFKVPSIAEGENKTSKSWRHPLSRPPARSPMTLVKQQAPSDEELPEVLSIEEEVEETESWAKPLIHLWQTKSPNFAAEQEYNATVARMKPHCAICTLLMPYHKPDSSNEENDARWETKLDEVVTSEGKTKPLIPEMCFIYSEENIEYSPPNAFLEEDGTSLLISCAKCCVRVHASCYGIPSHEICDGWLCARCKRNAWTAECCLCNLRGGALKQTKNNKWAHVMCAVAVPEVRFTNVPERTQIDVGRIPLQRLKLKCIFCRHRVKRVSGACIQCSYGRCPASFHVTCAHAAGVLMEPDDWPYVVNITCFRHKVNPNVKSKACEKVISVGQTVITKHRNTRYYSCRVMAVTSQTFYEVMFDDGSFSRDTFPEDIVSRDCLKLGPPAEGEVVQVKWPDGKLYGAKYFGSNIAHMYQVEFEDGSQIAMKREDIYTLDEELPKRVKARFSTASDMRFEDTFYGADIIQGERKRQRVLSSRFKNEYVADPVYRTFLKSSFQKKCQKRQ

CAAX prenyl protease 1 = CAAX prenyl protease 1 (Saccharomyces cerevisiae S288c, UniProt P47154); test: yeast CAAX protease Ste24 inhibition – biochemical, S. cerevisiae, plate reader, cherry-pick, dose response (AID 488815)
Sequence of CAAX prenyl protease 1 (P47154 whole entry, the tested form may be a part): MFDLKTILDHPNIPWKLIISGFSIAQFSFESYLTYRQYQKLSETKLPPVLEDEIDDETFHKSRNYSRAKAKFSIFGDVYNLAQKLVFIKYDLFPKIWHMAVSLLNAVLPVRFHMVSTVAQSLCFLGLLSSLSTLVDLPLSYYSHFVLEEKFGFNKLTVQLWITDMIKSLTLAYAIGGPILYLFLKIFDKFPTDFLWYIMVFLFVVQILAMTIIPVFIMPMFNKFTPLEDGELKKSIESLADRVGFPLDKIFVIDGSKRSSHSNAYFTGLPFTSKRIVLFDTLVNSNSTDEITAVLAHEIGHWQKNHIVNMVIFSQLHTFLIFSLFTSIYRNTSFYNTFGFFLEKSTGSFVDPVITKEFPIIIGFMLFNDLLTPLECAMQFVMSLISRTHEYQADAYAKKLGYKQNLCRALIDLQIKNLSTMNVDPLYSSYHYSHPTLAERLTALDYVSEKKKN

[14] = molecular target: Disintegrin and metalloproteinase domain-containing protein 17 (Homo sapiens, UniProt P78536); test: inhibition of ADAM17 substrate cleavage – biochemical, quenched FRET substrate, counter-screen for ADAM10 exosite inhibitor project, dose response (AID 743253)
Sequence of Disintegrin and metalloproteinase domain-containing protein 17 (P78536 whole entry, the tested form may be a part): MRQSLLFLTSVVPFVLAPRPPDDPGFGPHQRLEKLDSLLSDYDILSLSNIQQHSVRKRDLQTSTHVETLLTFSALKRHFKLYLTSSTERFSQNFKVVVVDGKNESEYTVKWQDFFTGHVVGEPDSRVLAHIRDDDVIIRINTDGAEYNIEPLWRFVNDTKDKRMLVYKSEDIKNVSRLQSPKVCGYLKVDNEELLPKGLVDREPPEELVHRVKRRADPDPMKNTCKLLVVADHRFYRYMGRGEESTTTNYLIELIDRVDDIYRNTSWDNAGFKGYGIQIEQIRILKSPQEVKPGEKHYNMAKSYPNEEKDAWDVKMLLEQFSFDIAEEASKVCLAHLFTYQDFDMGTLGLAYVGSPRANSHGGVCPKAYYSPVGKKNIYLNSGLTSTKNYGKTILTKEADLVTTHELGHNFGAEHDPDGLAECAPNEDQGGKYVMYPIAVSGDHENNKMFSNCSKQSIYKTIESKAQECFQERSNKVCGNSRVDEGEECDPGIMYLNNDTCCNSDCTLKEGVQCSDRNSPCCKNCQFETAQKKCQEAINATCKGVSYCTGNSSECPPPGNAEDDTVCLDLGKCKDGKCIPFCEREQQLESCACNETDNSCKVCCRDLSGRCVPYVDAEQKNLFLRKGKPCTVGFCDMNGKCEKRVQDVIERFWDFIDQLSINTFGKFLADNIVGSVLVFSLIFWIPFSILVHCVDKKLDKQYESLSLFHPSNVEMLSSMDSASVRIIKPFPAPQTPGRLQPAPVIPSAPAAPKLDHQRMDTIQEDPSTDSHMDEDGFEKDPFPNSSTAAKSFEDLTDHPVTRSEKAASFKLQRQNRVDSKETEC

[15] = potency of ADAM10 substrate cleavage blockers – biochemical, QFRET, dose response (AID 743254);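 also: ADAM10 enzyme with the DM2 quenched FRET peptide as substrate; EDANS fluorescence gain as the protease cuts the substrate; inhibitor potency against ADAM10 proteolytic activity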
CAAX prenyl protease 2 = molecular target: T4, CAAX prenyl protease 2 (Saccharomyces cerevisiae S288c, UniProt Q03530); type: biochemical
T4 sequence (Q03530 whole entry): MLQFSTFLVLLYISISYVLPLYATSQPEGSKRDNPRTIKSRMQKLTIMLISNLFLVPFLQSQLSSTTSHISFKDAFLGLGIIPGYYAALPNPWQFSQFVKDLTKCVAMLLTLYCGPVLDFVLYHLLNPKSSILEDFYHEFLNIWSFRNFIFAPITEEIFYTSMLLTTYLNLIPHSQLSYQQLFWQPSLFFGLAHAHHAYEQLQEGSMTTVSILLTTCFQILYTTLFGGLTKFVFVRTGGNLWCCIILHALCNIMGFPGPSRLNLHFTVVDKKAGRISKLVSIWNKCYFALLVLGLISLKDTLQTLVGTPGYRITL

Paired box protein Pax-8 = Paired box protein Pax-8 (Homo sapiens, UniProt Q06710); test: PAX8 transcriptional activity inhibition in RMG-I – RMG-I cells, luciferase, cherry-pick, dose response (AID 687027); type: functional, cell-based;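 also: luciferase reporter driven by Pax8 target thyroperoxidase promoter measured by SteadyGlo luminescence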
Sequence of Paired box protein Pax-8 (Q06710 whole entry): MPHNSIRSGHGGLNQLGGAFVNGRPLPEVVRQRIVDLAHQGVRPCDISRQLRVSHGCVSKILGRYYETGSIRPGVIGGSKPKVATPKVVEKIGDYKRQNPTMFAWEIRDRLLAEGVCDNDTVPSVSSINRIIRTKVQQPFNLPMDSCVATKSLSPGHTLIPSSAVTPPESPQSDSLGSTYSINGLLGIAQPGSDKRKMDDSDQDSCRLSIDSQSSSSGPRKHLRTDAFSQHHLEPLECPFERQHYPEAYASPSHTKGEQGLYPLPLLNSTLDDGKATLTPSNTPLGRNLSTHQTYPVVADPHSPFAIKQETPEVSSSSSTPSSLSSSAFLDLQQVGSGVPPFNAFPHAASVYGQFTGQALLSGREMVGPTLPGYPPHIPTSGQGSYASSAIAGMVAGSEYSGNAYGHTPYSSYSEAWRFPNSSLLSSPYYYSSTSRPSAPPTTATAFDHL

O=C(N/N=C/c1cn(-c2cccs2)nc1-c1ccccc1)c1ccccc1Br
AC50 [1]: 23 µM (active)
EC50 [2]: 31 µM (active)
AC50 [3]: 3.75 µM (active)
EC50 [4]: 30.2 µM (active)

Brc1ccc2c(c1)-c1ccccc1C1=NCCN12
EC50 (HEK293 [5]): > 59.8 µM (inactive)
EC50 (HEK293 [6]): > 59.8 µM (inactive)

COc1ccc(OC)c(N2C(=O)/C(=C/c3ccco3)C(=O)NC2=S)c1
IC50 [7]: 8.01 µM (active)
IC50 [8]: > 55.7 µM (not active)
IC50 [9]: < 1.23 µM (inactive)
IC50 [10]: < 1.23 µM (inactive)
AC50 [11]: 16.2 µM (active)
IC50 (Hexokinase HKDC1): 2.57 µM (active)
IC50 [12]: < 1.23 µM (not active)
AC50 [13]: 4.67 µM (active)

NC(=O)[C@H]1CC2(CC(c3cccc(NC(=O)COc4ccc(Cl)cc4)c3)=NO2)CN1C(=O)C(c1ccccc1)c1ccccc1 (some centres undefined)
AC50 (CAAX prenyl protease 1): 5.73 µM (active)
IC50 [14]: > 69.5 µM (inactive)
IC50 [15]: > 69.5 µM (inactive)
AC50 (CAAX prenyl protease 2): 2.68 µM (active)
AC50 (Paired box protein Pax-8): 15.7 µM (active)
